Earlier results in patent US7132450B2, “Hepatic disorder suppressant” (Kagome Co., Ltd., priority 2000, dated 2006).

Key:
NO and O2^− generation = details: reported in literature
[1] = reported in literature

## CCCCC/C=C\C/C=C\CCCCCCCC(=O)CC(O)COC(C)=O (stereo not drawn) [Compound 5, persin]
NO and O2^− generation
  inhibitory effect on NO and O2^− generation: inhibitory effect on NO and O2^− generation
[1]
  growth suppressing effect: various growth suppressing effect

## CCCCC/C=C\C/C=C\CCCCC/C=C/C(=O)CC(O)COC(C)=O (stereo not drawn) [Compound 4]
NO and O2^− generation
  inhibitory effect on NO and O2^− generation: has inhibitory effect on NO and O2^− generation
